Test systems include DLD-1 colon; LXFL 529 NSCLC; M19-MEL melanoma; SNB-78 CNS; HOP-18 NSCLC; KM20L2 colon; DMS 273 small cell lung; XF 498 CNS; RXF-631 renal.
Assay in all cases: NCI tumour cell line growth inhibition, 48 h

The structures appear in SMILES notation.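 48-hour exposure; five concentrations; linearly interpolated endpoints. TGI marks complete inhibition of growth.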 Bounds are passed on as bounds.

In the case of `CN(C)C(=O)OC(Cn1cncn1)c1ccc(Cl)cc1Cl` (stereo not drawn), the TGI in the experiment with DLD-1 colon, in the experiment on LXFL 529 NSCLC, in the experiment on M19-MEL melanoma, in the experiment with SNB-78 CNS, in the experiment with HOP-18 NSCLC and in the experiment on KM20L2 colon was > 100 µM throughout. In the experiment on DMS 273 small cell lung, the TGI is > 100 µM.

Regarding `CCc1ccccc1NC(=O)C(=O)CC(=O)c1sc(Nc2ccccc2)nc1C`, the TGI in the experiment on DLD-1 colon, in the experiment with LXFL 529 NSCLC, in the experiment with XF 498 CNS, in the experiment on M19-MEL melanoma, in the experiment with SNB-78 CNS and in the experiment with RXF-631 renal was > 100 µM each time. Also, the TGI in the experiment with HOP-18 NSCLC, in the experiment on KM20L2 colon and in the experiment with DMS 273 small cell lung was > 100 µM throughout.

`NC(=O)N=C(N(Cc1ccccc1)Cc1ccccc1)N(Cc1ccccc1)Cc1ccccc1`: the TGI in the experiment with DLD-1 colon, in the experiment with LXFL 529 NSCLC, in the experiment on M19-MEL melanoma, with SNB-78 CNS, in the experiment with KM20L2 colon and with DMS 273 small cell lung was > 100 µM each time.

Regarding `O=C(COc1ccc2c(=O)cc(-c3ccccc3)oc2c1)N1CCN(c2ccccc2)CC1`, the TGI in the experiment with LXFL 529 NSCLC, with M19-MEL melanoma, with SNB-78 CNS, with HOP-18 NSCLC and in the experiment on KM20L2 colon was > 100 µM throughout.

Regarding `CSc1ccc(C2OC(=O)c3ccccc32)c2ccccc12` (stereo not drawn), the TGI in the experiment on DLD-1 colon, in the experiment on LXFL 529 NSCLC, in the experiment with XF 498 CNS, in the experiment with M19-MEL melanoma, in the experiment on SNB-78 CNS and in the experiment with RXF-631 renal was > 100 µM each time. In addition, the TGI in the experiment with HOP-18 NSCLC and in the experiment with KM20L2 colon was > 100 µM throughout.

In the case of `O=C1[C@H]2ON(c3ccccc3)C(c3ccccc3Cl)[C@H]2C(=O)N1c1ccc(Cc2ccc(N3C(=O)[C@@H]4ON(c5ccccc5)C(c5ccccc5Cl)[C@@H]4C3=O)cc2)cc1` (stereo partly drawn), the TGI with DLD-1 colon, with LXFL 529 NSCLC, with M19-MEL melanoma, with SNB-78 CNS, in the experiment with HOP-18 NSCLC and in the experiment with KM20L2 colon was > 100 µM each time. The TGI in the experiment on DMS 273 small cell lung was > 100 µM.

Regarding `CC(C)[C@H]1CO[C@]2(C)[C@@H]3CN(Cc4ccccc4)C[C@@H]3C(=O)N12`, the TGI in the experiment with DLD-1 colon, in the experiment on LXFL 529 NSCLC, in the experiment with M19-MEL melanoma, with HOP-18 NSCLC, with KM20L2 colon and in the experiment with DMS 273 small cell lung was > 100 µM throughout.

On to `COc1ccc(C2=Nc3ccccc3NC(=O)C2)cc1`, for which the TGI in the experiment on DLD-1 colon was > 100 µM; in the experiment with LXFL 529 NSCLC it was > 100 µM; with XF 498 CNS it was 36.8 µM; in the experiment with M19-MEL melanoma, > 100 µM; in the experiment with SNB-78 CNS, 70 µM; with RXF-631 renal it was > 100 µM. The TGI with HOP-18 NSCLC, in the experiment on KM20L2 colon and in the experiment on DMS 273 small cell lung was > 100 µM throughout.

With `Cc1csc(=S)n1OC(=O)NC1CCCCC1`, the TGI in the experiment on DLD-1 colon was > 100 µM; in the experiment on LXFL 529 NSCLC, > 24 µM; in the experiment on XF 498 CNS, > 100 µM; in the experiment on M19-MEL melanoma it was > 56.6 µM; in the experiment on SNB-78 CNS, > 100 µM; in the experiment on DMS 273 small cell lung, > 79.9 µM.

As for `Nn1c(NNC(=O)C(=O)Nc2cc(Cl)c(Cl)cc2Cl)n[nH]c1=S`, the TGI with DLD-1 colon, with LXFL 529 NSCLC, in the experiment on XF 498 CNS, in the experiment on M19-MEL melanoma, in the experiment on SNB-78 CNS and in the experiment with HOP-18 NSCLC was > 100 µM throughout. In the experiment with KM20L2 colon, the TGI was > 100 µM.

As to `NC1C[C@H](n2cc(/C=C/Br)c(=O)[nH]c2=O)C[C@@H]1CO` (stereo partly drawn), the TGI in the experiment with DLD-1 colon, with LXFL 529 NSCLC, with M19-MEL melanoma, in the experiment on HOP-18 NSCLC, with KM20L2 colon and in the experiment on DMS 273 small cell lung was > 100 µM in each case.

Consider `Cc1c(/C=N/NC(=O)c2cc(Br)cc(Br)c2O)c(=O)n(-c2ccccc2)n1C`, for which the TGI in the experiment on DLD-1 colon was > 100 µM; with LXFL 529 NSCLC, > 100 µM; with XF 498 CNS, 37.9 µM; in the experiment with M19-MEL melanoma it was > 100 µM; in the experiment on SNB-78 CNS it was > 100 µM; in the experiment with KM20L2 colon, > 100 µM. For the same compound, the TGI with DMS 273 small cell lung is > 100 µM.

With `COc1cc(OC)c2c(c1)C(=O)C(CC(C)O)=CC2=O` (stereo not drawn), the TGI is 28.5 µM with DLD-1 colon; 26.1 µM in the experiment on LXFL 529 NSCLC; 27 µM in the experiment with XF 498 CNS; 11.4 µM in the experiment on M19-MEL melanoma; 32 µM in the experiment on SNB-78 CNS; 30.4 µM in the experiment on HOP-18 NSCLC. Also, the TGI in the experiment on KM20L2 colon was determined as 31.8 µM; in the experiment with DMS 273 small cell lung it was 37.6 µM.

For `CC1SC2=NC3=C(c4ccccc4C3=O)C(c3ccc(F)cc3)N2C1=O` (stereo not drawn), the TGI in the experiment with DLD-1 colon, with LXFL 529 NSCLC, with XF 498 CNS, in the experiment on M19-MEL melanoma, in the experiment on KM20L2 colon and in the experiment on DMS 273 small cell lung was > 100 µM each time.

For `Cn1cnc(CCc2ccccc2)n1`, the TGI with DLD-1 colon, with LXFL 529 NSCLC, in the experiment with M19-MEL melanoma, with SNB-78 CNS, in the experiment with HOP-18 NSCLC and with KM20L2 colon was > 100 µM each time. Moreover, in the experiment with DMS 273 small cell lung, the TGI is > 100 µM.

As for `C=CC/C=C/Cc1csc(C(C)(C)C(O)C/C=C/C(=C)CCNC(=O)OC)n1` (stereo not drawn), the TGI with DLD-1 colon, with LXFL 529 NSCLC, with XF 498 CNS, in the experiment with M19-MEL melanoma, in the experiment with KM20L2 colon and with DMS 273 small cell lung was > 100 µM throughout.

Turning to `Cc1[nH]ccc2c1[nH]c1cc(=O)ccc12`, the TGI in the experiment with DLD-1 colon, in the experiment with LXFL 529 NSCLC, in the experiment on XF 498 CNS, with M19-MEL melanoma, in the experiment on SNB-78 CNS and in the experiment with RXF-631 renal was > 100 µM in each case. Moreover, the TGI in the experiment with HOP-18 NSCLC, in the experiment on KM20L2 colon and in the experiment on DMS 273 small cell lung was > 100 µM throughout.

`CC(=O)OCC1OC(OC2C(CSC3OC(COC(C)=O)C(OC(C)=O)C(OC(C)=O)C3OC(C)=O)OC(OC(C)=O)C(OC(C)=O)C2OC(C)=O)C(OC(C)=O)C(OC(C)=O)C1OC(C)=O` (stereo not drawn): the TGI with DLD-1 colon, with LXFL 529 NSCLC, in the experiment with XF 498 CNS, in the experiment with M19-MEL melanoma, with SNB-78 CNS and with KM20L2 colon was > 100 µM in each case. For the same compound, the TGI in the experiment with DMS 273 small cell lung is > 100 µM.

Consider `COc1cc(Cn2c3ccccc3c3cc(C)c4c(c32)C=CC(C)(CCC=C(C)C)O4)cc2c1[nH]c1ccccc12` (stereo not drawn), for which the TGI with DLD-1 colon, in the experiment with LXFL 529 NSCLC, in the experiment with M19-MEL melanoma, with SNB-78 CNS, with HOP-18 NSCLC and in the experiment on KM20L2 colon was > 100 µM in each case. Moreover, the TGI in the experiment with DMS 273 small cell lung was > 100 µM.

With `C[C@H](OCc1ccccc1)C(=O)N1CCS(=O)(=O)N2CCC[C@H]2C1=O`, the TGI in the experiment on DLD-1 colon, in the experiment on LXFL 529 NSCLC, in the experiment on M19-MEL melanoma, with SNB-78 CNS, with RXF-631 renal and in the experiment with HOP-18 NSCLC was > 100 µM each time. Moreover, in the experiment on KM20L2 colon, the TGI is > 100 µM.

As to `CC1=C(C(=O)O)N2C(=O)[C@@H](NC(=O)C(c3ccc(O)cc3)N3CSC(=S)N(C(C)C)C3)C2SC1` (stereo partly drawn), the TGI in the experiment on DLD-1 colon, with LXFL 529 NSCLC, in the experiment with XF 498 CNS, in the experiment with M19-MEL melanoma, in the experiment with SNB-78 CNS and with HOP-18 NSCLC was > 100 µM each time. Moreover, the TGI in the experiment with KM20L2 colon and in the experiment on DMS 273 small cell lung was > 100 µM throughout.

Source of the values: PubChem BioAssay (NCI).
